Measured values taken from ChEMBL document CHEMBL1150438, “Benzimidazole ribonucleosides: Observation of an unexpected nitration when performing non-aqueous diazotizations with t-butyl nitrite” (Bioorg Med Chem Lett, 1992).

Columns and labels:
[1] = tested on: Human betaherpesvirus 5; assay: Compound was tested for antiviral activity against human cytomegalovirus (HCMV) yield reduction assay; type: functional
[2] = tested on: HFF; assay: Cytotoxicity against human foreskin fibroblasts (HFF) cells; type: functional, cell-based
[3] = tested on: Human betaherpesvirus 5; assay: Compound was tested for antiviral activity against human cytomegalovirus (HCMV) plaque reduction assay; type: functional, organism-based
[4] = tested on: Human alphaherpesvirus 1; assay: Compound was tested for antiviral activity against HSV-1; type: functional, organism-based

IC50 [3] [µM] | IC50 [4] [µM] | SMILES | IC90 [1] [µM] | IC50 [2] [µM]
– | – | Nc1nc2c(ncn2COC(CO)CO)c(=O)[nH]1 [GANCICLOVIR] | 2 | > 100
> 100 | > 100 | O=[N+]([O-])c1c(Cl)c(Cl)cc2c1nc(O)n2C1O[C@H](CO)[C@@H](O)[C@H]1O (some centres not stated) | – | –
– | – | OC[C@H]1OC(n2c(I)nc3cc(Cl)c(Cl)cc32)[C@H](O)[C@@H]1O (some centres not stated) | 26 | 127
> 100 | > 100 | OC[C@H]1OC(n2c(O)nc3cc(Cl)c(Cl)cc32)[C@H](O)[C@@H]1O (some centres not stated) | – | –
> 100 | > 100 | Nc1c(Cl)c(Cl)cc2c1nc(O)n2C1O[C@H](CO)[C@@H](O)[C@H]1O (some centres not stated) | – | > 100
– | – | OC[C@H]1O[C@@H](n2cnc3cc(Cl)c(Cl)cc32)[C@H](O)[C@@H]1O [DICHLORORIBOBENZIMIDAZOLE] | 19 | –
